Experiments:
p300 = molecular target: T1, p300 (Homo sapiens, UniProt Q09472); test: P300 degradation, HiBit technology in A549 P300 HiBit cells (2 h); assay type: cell-based; settings: 2 hrs post treatment; for Dmax: A549, A549 P300 HiBit cells; for DC50: A549 P300 HiBit cells
T1 construct: host or cells: A549 P300 HiBit cells
Summary of the method: (§1)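 A549 cells carrying HiBit-tagged p300 or CBP, seeded overnight at 37 °C/5% CO2, then treated with serial compound dilutions from 10 mM DMSO stocks. Incubation was 2 h for p300 and 24 h for CBP, followed by HiBit lytic detection reagent for 10 min at room temperature. Luminescence read gave degradation potency and Dmax.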

CBP = molecular target: T2, CBP (Homo sapiens, UniProt Q92793); test: CBP degradation, HiBit technology in A549 CBP HiBit cells (24 h); assay type: cell-based; settings: 24 hrs post treatment
T2 construct: host or cells: A549 CBP HiBit cells
Summary of the method: as §1

T1 sequence (Q09472 whole entry): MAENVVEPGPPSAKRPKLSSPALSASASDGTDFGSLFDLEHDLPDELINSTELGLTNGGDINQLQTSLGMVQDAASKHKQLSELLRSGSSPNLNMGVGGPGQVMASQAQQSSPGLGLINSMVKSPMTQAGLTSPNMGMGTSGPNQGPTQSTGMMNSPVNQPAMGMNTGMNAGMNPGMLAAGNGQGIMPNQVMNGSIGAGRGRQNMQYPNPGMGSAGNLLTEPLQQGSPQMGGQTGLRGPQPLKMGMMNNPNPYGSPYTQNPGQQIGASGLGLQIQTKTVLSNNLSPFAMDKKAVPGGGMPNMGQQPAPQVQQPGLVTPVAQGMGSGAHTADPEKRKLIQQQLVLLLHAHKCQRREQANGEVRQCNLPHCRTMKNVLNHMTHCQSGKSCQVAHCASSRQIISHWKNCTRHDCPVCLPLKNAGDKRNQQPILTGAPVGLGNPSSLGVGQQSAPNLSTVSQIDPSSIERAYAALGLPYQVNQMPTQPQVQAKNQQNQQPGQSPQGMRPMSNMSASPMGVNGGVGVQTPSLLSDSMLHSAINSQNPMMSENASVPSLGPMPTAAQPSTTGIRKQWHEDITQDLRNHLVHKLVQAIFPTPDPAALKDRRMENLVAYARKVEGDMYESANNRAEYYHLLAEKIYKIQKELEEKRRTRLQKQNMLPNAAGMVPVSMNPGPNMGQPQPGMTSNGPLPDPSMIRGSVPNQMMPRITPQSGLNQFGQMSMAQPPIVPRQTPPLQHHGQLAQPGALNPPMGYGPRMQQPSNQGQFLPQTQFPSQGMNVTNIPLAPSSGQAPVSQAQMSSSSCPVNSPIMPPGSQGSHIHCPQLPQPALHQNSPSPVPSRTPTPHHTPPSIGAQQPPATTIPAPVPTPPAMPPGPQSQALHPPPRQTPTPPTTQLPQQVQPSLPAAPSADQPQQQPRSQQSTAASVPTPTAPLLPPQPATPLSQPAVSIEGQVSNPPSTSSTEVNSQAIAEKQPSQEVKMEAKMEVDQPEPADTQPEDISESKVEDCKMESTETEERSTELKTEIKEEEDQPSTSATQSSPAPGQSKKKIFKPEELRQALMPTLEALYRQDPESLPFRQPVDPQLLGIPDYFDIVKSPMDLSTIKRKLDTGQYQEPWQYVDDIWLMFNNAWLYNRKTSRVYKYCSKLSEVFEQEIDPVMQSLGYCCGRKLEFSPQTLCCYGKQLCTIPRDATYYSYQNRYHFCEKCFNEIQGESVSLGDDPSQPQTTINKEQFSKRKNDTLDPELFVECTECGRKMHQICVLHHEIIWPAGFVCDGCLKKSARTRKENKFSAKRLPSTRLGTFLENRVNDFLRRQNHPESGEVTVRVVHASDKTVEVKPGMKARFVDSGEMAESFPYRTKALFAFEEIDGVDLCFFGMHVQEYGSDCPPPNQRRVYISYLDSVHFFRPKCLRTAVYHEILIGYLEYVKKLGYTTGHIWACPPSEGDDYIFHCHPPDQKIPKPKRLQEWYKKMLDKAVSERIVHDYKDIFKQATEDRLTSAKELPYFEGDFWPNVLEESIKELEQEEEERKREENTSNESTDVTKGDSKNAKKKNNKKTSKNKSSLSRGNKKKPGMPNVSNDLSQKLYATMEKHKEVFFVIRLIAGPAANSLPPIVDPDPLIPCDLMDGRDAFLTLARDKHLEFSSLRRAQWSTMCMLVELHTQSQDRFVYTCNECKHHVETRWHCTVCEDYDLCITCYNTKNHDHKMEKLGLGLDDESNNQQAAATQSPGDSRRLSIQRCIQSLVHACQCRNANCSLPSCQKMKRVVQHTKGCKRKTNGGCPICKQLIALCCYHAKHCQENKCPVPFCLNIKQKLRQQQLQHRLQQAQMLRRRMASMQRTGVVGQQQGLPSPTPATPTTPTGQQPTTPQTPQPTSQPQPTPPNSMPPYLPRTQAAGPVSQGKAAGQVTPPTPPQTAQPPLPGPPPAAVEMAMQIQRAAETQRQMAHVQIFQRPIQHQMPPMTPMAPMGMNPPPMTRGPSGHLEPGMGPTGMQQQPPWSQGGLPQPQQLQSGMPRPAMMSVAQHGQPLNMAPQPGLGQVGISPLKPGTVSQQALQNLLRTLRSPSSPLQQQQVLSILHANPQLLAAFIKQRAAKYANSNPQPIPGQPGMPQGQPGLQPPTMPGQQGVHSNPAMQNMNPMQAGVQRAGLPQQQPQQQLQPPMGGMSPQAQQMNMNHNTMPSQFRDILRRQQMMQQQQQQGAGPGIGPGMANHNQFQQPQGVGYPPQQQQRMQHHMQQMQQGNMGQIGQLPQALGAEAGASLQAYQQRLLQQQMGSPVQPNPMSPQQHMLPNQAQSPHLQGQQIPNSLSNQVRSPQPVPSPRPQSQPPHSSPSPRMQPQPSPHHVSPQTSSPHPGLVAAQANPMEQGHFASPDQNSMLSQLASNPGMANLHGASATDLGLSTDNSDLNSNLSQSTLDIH
T2 sequence (Q92793 whole entry): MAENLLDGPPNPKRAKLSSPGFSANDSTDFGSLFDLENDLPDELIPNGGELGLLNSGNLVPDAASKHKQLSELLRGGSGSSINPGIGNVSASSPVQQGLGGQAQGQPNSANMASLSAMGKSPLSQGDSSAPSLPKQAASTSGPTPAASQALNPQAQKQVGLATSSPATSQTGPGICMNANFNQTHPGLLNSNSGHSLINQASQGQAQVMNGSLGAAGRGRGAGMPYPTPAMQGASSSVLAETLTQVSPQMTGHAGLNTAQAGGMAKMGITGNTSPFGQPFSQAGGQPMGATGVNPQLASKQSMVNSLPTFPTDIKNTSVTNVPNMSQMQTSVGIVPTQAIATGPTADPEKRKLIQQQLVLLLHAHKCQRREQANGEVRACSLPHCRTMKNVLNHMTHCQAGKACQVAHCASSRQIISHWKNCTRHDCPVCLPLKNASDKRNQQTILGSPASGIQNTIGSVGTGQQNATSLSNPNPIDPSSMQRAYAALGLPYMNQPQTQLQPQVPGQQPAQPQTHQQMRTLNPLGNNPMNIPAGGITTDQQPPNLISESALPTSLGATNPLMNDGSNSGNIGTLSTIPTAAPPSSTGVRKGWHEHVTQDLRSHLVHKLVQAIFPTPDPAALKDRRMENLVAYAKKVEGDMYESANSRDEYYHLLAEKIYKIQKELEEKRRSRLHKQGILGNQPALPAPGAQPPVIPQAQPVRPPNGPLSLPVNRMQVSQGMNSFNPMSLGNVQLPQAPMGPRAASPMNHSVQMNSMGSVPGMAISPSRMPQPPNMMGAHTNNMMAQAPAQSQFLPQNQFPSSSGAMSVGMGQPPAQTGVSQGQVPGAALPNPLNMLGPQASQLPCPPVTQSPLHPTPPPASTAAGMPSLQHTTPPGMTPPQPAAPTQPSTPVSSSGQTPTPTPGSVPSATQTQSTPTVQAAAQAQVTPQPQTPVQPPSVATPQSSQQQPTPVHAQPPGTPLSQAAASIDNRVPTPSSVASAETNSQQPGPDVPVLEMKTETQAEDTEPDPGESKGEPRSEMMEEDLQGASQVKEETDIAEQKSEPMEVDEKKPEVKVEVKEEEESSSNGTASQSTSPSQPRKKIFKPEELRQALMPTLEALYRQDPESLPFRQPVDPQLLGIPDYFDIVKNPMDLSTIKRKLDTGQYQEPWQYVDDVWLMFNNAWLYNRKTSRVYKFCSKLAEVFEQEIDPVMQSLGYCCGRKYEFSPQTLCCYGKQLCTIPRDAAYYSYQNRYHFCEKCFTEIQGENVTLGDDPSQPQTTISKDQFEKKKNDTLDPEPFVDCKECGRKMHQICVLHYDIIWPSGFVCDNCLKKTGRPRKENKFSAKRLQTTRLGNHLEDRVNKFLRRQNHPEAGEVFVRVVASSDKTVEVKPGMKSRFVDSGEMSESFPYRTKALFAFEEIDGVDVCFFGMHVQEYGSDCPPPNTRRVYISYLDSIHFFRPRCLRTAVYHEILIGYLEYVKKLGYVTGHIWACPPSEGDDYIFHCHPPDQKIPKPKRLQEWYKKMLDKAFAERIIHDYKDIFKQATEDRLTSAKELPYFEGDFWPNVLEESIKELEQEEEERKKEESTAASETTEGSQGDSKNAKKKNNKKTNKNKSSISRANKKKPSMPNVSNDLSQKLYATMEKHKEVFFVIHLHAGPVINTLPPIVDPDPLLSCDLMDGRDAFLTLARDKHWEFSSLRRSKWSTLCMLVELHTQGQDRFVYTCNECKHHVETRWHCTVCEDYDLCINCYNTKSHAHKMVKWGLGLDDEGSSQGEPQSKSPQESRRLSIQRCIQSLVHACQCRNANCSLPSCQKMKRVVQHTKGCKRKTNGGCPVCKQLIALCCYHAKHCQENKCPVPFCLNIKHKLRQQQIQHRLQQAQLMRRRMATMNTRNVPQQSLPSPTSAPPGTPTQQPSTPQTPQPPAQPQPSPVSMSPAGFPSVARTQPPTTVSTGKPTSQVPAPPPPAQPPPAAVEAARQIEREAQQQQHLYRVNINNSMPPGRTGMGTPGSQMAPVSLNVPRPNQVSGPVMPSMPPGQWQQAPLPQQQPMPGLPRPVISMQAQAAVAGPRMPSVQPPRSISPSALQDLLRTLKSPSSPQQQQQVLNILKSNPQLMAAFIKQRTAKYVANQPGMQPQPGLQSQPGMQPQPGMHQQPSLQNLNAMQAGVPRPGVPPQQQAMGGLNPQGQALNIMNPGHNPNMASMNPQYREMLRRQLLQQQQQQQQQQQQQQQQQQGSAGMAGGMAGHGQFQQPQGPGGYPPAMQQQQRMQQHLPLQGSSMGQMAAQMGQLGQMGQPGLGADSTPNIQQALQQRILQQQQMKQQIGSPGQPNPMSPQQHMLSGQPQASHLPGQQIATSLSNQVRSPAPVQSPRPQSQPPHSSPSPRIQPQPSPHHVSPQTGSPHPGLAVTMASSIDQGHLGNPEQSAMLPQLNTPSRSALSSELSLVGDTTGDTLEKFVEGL

Row | SMILES | Dmax (p300) [%] | DC50 (p300) [nM] | DC50 (CBP) [nM] | Dmax (CBP) [%]
1 | Cc1cc2c(N3CCCc4nc(-c5ccc(C(=O)NCC#Cc6ccc7occ([C@@H]8CCC(=O)NC8=O)c7c6)nc5)ncc43)nc(N3CCOCC3)cc2n(C)c1=O [Example B73, (S)-5-(5-(1,3-dimethyl-7-morpholino-2-oxo-1,2-dihydro-1,6-naphthyridin-5-yl)-5,6,7,8-tetrahydropyrido[3,2-d]pyrimidin-2-yl)-N-(3-(3-(2,6-dioxopiperidin-3-yl)benzofuran-5-yl)prop-2-yn-1-yl)picolinamide] | > 80 | 1 to 9.9 | > 1000 | < 20
2 | Cc1cc2c(-c3cccc4cc(-c5ccc(C(=O)NCC#Cc6cc7c(C8CCC(=O)NC8=O)cccc7o6)nc5)ncc34)nc(N3CCOCC3)cc2n(C)c1=O (centres unmarked) [Example B74, 5-(8-(1,3-dimethyl-7-morpholino-2-oxo-1,2-dihydro-1,6-naphthyridin-5-yl)isoquinolin-3-yl)-N-(3-(4-(2,6-dioxopiperidin-3-yl)benzofuran-2-yl)prop-2-yn-1-yl)picolinamide] | > 80 | 1 to 9.9 | > 1000 | < 20
3 | Cc1cc2c(N3CCCc4nc(-c5ccc(C(=O)NCC#Cc6ccc7occ(C8CCC(=O)NC8=O)c7c6)nc5)ncc43)cc(C3CCOCC3)nc2n(C)c1=O (centres unmarked) [Example B76, 5-(5-(6,8-dimethyl-7-oxo-2-(tetrahydro-2H-pyran-4-yl)-7,8-dihydro-1,8-naphthyridin-4-yl)-5,6,7,8-tetrahydropyrido[3,2-d]pyrimidin-2-yl)-N-(3-(3-(2,6-dioxopiperidin-3-yl)benzofuran-5-yl)prop-2-yn-1-yl)picolinamide] | > 80 | 1 to 9.9 | 100 to 999 | < 20
4 | Cc1cc2c(N3CCOc4cc(-c5ccc(C(=O)NCC#Cc6ccc7occ(C8CCC(=O)NC8=O)c7c6)nc5)ncc43)cccc2n(C)c1=O (centres unmarked) [Example B77, 5-(4-(1,3-dimethyl-2-oxo-1,2-dihydroquinolin-5-yl)-3,4-dihydro-2H-pyrido[4,3-b][1,4]oxazin-7-yl)-N-(3-(3-(2,6-dioxopiperidin-3-yl)benzofuran-5-yl)prop-2-yn-1-yl)picolinamide] | > 80 | 1 to 9.9 | > 1000 | < 20
5 | Cc1cc2c(N3CCCc4nc(-c5ccc(C(=O)NCC#Cc6cc7c(C8CCC(=O)NC8=O)cccc7s6)nc5)ncc43)cc(C3CCOCC3)cc2n(C)c1=O (centres unmarked) [Example B79, 5-(5-(1,3-dimethyl-2-oxo-7-(tetrahydro-2H-pyran-4-yl)-1,2-dihydroquinolin-5-yl)-5,6,7,8-tetrahydropyrido[3,2-d]pyrimidin-2-yl)-N-(3-(4-(2,6-dioxopiperidin-3-yl)benzo[b]thiophen-2-yl)prop-2-yn-1-yl)picolinamide] | > 80 | 1 to 9.9 | > 1000 | < 20
6 | Cc1cc2c(N3CCCc4nc(-c5ccc(C(=O)NCC#Cc6cc7c(C8CCC(=O)NC8=O)nccc7s6)nc5)ncc43)cc(C3CCOCC3)cc2n(C)c1=O (centres unmarked) [Example B81, 5-(5-(1,3-dimethyl-2-oxo-7-(tetrahydro-2H-pyran-4-yl)-1,2-dihydroquinolin-5-yl)-5,6,7,8-tetrahydropyrido[3,2-d]pyrimidin-2-yl)-N-(3-(4-(2,6-dioxopiperidin-3-yl)thieno[3,2-c]pyridin-2-yl)prop-2-yn-1-yl)picolinamide] | > 80 | 1 to 9.9 | 10 to 99 | 40 to 59
7 | Cc1cc2c(N3CCCc4nc(-c5ccc(C(=O)NCC#Cc6cc7c(C8CCC(=O)NC8=O)cccc7o6)nc5)ncc43)cc(C3(F)CCOCC3)cc2n(C)c1=O (centres unmarked) [Example B82, N-(3-(4-(2,6-dioxopiperidin-3-yl)benzofuran-2-yl)prop-2-yn-1-yl)-5-(5-(7-(4-fluorotetrahydro-2H-pyran-4-yl)-1,3-dimethyl-2-oxo-1,2-dihydroquinolin-5-yl)-5,6,7,8-tetrahydropyrido [3,2-d]pyrimidin-2-yl)picolinamide] | > 80 | 1 to 9.9 | > 1000 | < 20
8 | Cc1cc(-c2cc3c(cn2)N(c2cccc4c2cc(C)c(=O)n4C)CCO3)cnc1C(=O)NCC#Cc1ccc2occ(C3CCC(=O)NC3=O)c2c1 (centres unmarked) [Example B83, 5-(4-(1,3-dimethyl-2-oxo-1,2-dihydroquinolin-5-yl)-3,4-dihydro-2H-pyrido[4,3-b][1,4]oxazin-7-yl)-N-(3-(3-(2,6-dioxopiperidin-3-yl)benzofuran-5-yl)prop-2-yn-1-yl)-3-methylpicolinamide] | > 80 | 1 to 9.9 | 100 to 999 | 40 to 59
9 | Cc1cc2c(N3CCCc4cc(-c5ccc(C(=O)NCC#Cc6cc7c(C8CCC(=O)NC8=O)nccc7o6)nc5)nnc43)cc(C3CCOCC3)cc2n(C)c1=O (centres unmarked) [Example B84, 5-(8-(1,3-dimethyl-2-oxo-7-(tetrahydro-2H-pyran-4-yl)-1,2-dihydroquinolin-5-yl)-5,6,7,8-tetrahydropyrido[2,3-c]pyridazin-3-yl)-N-(3-(4-(2,6-dioxopiperidin-3-yl)furo [3,2-c]pyridin-2-yl)prop-2-yn-1-yl) picolinamide] | > 80 | < 1 | 100 to 999 | < 20
10 | Cc1cc2c(N3CCCc4nc(-c5cnc(C(=O)NCC#Cc6cc7c(C8CCC(=O)NC8=O)cccc7o6)cn5)ncc43)cc(C3CCOCC3)cc2n(C)c1=O (centres unmarked) [Example B87, 5-(5-(1,3-dimethyl-2-oxo-7-(tetrahydro-2H-pyran-4-yl)-1,2-dihydroquinolin-5-yl)-5,6,7,8-tetrahydropyrido[3,2-d]pyrimidin-2-yl)-N-(3-(4-(2,6-dioxopiperidin-3-yl)benzofuran-2-yl)prop-2-yn-1-yl)pyrazine-2-carboxamide] | 60 to 79 | 1 to 9.9 | > 1000 | < 20
11 | Cc1cc2c(-c3cccc4cc(-c5ccc(C(=O)NCC#Cc6ccc7occ(C8CCC(=O)NC8=O)c7c6)nc5)ncc34)nc(OC(C)C)cc2n(C)c1=O (centres unmarked) [Example B88, N-(3-(3-(2,6-dioxopiperidin-3-yl)benzofuran-5-yl)prop-2-yn-1-yl)-5-(8-(7-isopropoxy-1,3-dimethyl-2-oxo-1,2-dihydro-1,6-naphthyridin-5-yl)isoquinolin-3-yl)picolinamide] | > 80 | 1 to 9.9 | > 1000 | < 20
12 | Cc1cc2c(N3CCCc4nc(-c5ccc(C(=O)NCC#Cc6cc7c(C8CCC(=O)NC8=O)c(F)ccc7o6)nc5)ncc43)cc(C3CCOCC3)cc2n(C)c1=O (centres unmarked) [Example B90, 5-(5-(1,3-dimethyl-2-oxo-7-(tetrahydro-2H-pyran-4-yl)-1,2-dihydroquinolin-5-yl)-5,6,7,8-tetrahydropyrido[3,2-d]pyrimidin-2-yl)-N-(3-(4-(2,6-dioxopiperidin-3-yl)-5-fluorobenzo-furan-2-yl)prop-2-yn-1-yl)picolinamide] | > 80 | < 1 | > 1000 | < 20
13 | Cc1cc2c(-c3cccc4cc(-c5ccc(C(=O)NCC#Cc6ccc7occ(C8CCC(=O)NC8=O)c7c6)nc5)ncc34)nc(N3CCOCC3)cc2n(C)c1=O (centres unmarked) [Example B92, 5-(8-(1,3-dimethyl-7-morpholino-2-oxo-1,2-dihydro-1,6-naphthyridin-5-yl)isoquinolin-3-yl)-N-(3-(3-(2,6-dioxopiperidin-3-yl)benzofuran-5-yl)prop-2-yn-1-yl)picolinamide] | > 80 | 1 to 9.9 | 10 to 99 | 20 to 39
14 | Cc1cc2c(N3CCCc4nc(-c5ccc(C(=O)NCC#Cc6cc7c(C8CCC(=O)NC8=O)nccc7o6)nc5)ncc43)cc(C3CCOCC3)cc2n(C)c1=O (centres unmarked) [Example B94, 5-(5-(1,3-dimethyl-2-oxo-7-(tetrahydro-2H-pyran-4-yl)-1,2-dihydroquinolin-5-yl)-5,6,7,8-tetrahydropyrido[3,2-d]pyrimidin-2-yl)-N-(3-(4-(2,6-dioxopiperidin-3-yl)furo[3,2-c]pyridin-2-yl)prop-2-yn-1-yl)picolinamide] | > 80 | < 1 | 1 to 9.9 | 20 to 39
15 | Cc1cc2c(N3CCOc4nc(-c5ccc(C(=O)NCC#Cc6cc7c(C8CCC(=O)NC8=O)cccc7o6)nc5)ncc43)cc(C3CCOCC3)cc2n(C)c1=O (centres unmarked) [Example B96, 5-(5-(1,3-dimethyl-2-oxo-7-(tetrahydro-2H-pyran-4-yl)-1,2-dihydroquinolin-5-yl)-6,7-dihydro-5H-pyrimido[4,5-b][1,4]oxazin-2-yl)-N-(3-(4-(2,6-dioxopiperidin-3-yl)benzofuran-2-yl)prop-2-yn-1-yl)picolinamide] | > 80 | 1 to 9.9 | 100 to 999 | < 20
16 | Cc1cc2c(-c3cccc4cc(-c5ccc(C(=O)NCC#Cc6ccc7occ(C8CCC(=O)NC8=O)c7c6)nc5)ncc34)nc(C(C)C)cc2n(C)c1=O (centres unmarked) [Example B102, N-(3-(3-(2,6-dioxopiperidin-3-yl)benzofuran-5-yl)prop-2-yn-1-yl)-5-(8-(7-isopropyl-1,3-dimethyl-2-oxo-1,2-dihydro-1,6-naphthyridin-5-yl)isoquinolin-3-yl)picolinamide] | > 80 | 1 to 9.9 | > 1000 | < 20
17 | Cc1cc(-c2ncc3c(n2)CCCN3c2cc(C3CCOCC3)nc3c2cc(C)c(=O)n3C)cnc1C(=O)NCC#Cc1cc2c(C3CCC(=O)NC3=O)cccc2o1 (centres unmarked) [Example B103, 5-(5-(6,8-dimethyl-7-oxo-2-(tetrahydro-2H-pyran-4-yl)-7,8-dihydro-1,8-naphthyridin-4-yl)-5,6,7,8-tetrahydropyrido[3,2-d]pyrimidin-2-yl)-N-(3-(4-(2,6-dioxopiperidin-3-yl)benzofuran-2-yl)prop-2-yn-1-yl)-3-methylpicolinamide] | > 80 | 1 to 9.9 | 100 to 999 | < 20

From patent US20250114345A1, “COMPOUNDS AND COMPOSITIONS AS CBP/P300 DEGRADERS AND USES THEREOF” (Oncopia Therapeutics, Inc. d/b/a/ SK Life Science Labs, priority 2023, published 2025)
